Experimental data published in the NIST ThermoML archive (doi:10.1021/je8008073).

Assay: wn = mass fraction of the nth substance listed
Conditions: Liquid; for mass density: Vibrating tube method; for viscosity: Falling or rolling sphere viscometry

CC(C)Cc1ccccc1 [(2-methylpropyl)benzene] + c1ccc2c(c1)CCCC2
Conditions | mass density [kg/m3] | viscosity [mPa·s]
293.15 K, 100 kPa, w2 = 0.5 | 907.9 | –
293.15 K, 2000 kPa, w2 = 0.5 | 909.1 | –
293.15 K, 4000 kPa, w2 = 0.5 | 910.3 | –
293.15 K, 6000 kPa, w2 = 0.5 | 911.6 | –
293.15 K, 8000 kPa, w2 = 0.5 | 913 | –
293.15 K, 10000 kPa, w2 = 0.5 | 914.3 | –
293.15 K, 12000 kPa, w2 = 0.5 | 915.4 | –
293.15 K, 14000 kPa, w2 = 0.5 | 916.6 | –
293.15 K, 16000 kPa, w2 = 0.5 | 917.7 | –
293.15 K, 18000 kPa, w2 = 0.5 | 918.8 | –
293.15 K, 20000 kPa, w2 = 0.5 | 920.1 | –
295.65 K, 100 kPa, w2 = 0.5 | 905.7 | –
295.65 K, 2000 kPa, w2 = 0.5 | 906.8 | –
295.65 K, 4000 kPa, w2 = 0.5 | 908.1 | –
295.65 K, 6000 kPa, w2 = 0.5 | 909.3 | –
295.65 K, 8000 kPa, w2 = 0.5 | 910.6 | –
295.65 K, 10000 kPa, w2 = 0.5 | 911.9 | –
295.65 K, 12000 kPa, w2 = 0.5 | 913.1 | –
295.65 K, 14000 kPa, w2 = 0.5 | 914.3 | –
295.65 K, 16000 kPa, w2 = 0.5 | 915.4 | –
295.65 K, 18000 kPa, w2 = 0.5 | 916.6 | –
295.65 K, 20000 kPa, w2 = 0.5 | 917.7 | –
298.15 K, 100 kPa, w2 = 0.48 | 901.3 | –
298.15 K, 100 kPa, w2 = 0.49 | 902.5 | –
298.15 K, 100 kPa, w2 = 0.5 | 903.6 | 1.33
298.15 K, 100 kPa, w2 = 0.51 | 905 | –
298.15 K, 100 kPa, w2 = 0.52 | 906 | –
298.15 K, 2000 kPa, w2 = 0.48 | 902.6 | –
298.15 K, 2000 kPa, w2 = 0.49 | 903.8 | –
298.15 K, 2000 kPa, w2 = 0.5 | 904.7 | –
298.15 K, 2000 kPa, w2 = 0.51 | 906.2 | –
298.15 K, 2000 kPa, w2 = 0.52 | 907.3 | –
298.15 K, 4000 kPa, w2 = 0.48 | 904 | –
298.15 K, 4000 kPa, w2 = 0.49 | 905.1 | –
298.15 K, 4000 kPa, w2 = 0.5 | 906.1 | 1.37
298.15 K, 4000 kPa, w2 = 0.51 | 907.6 | –
298.15 K, 4000 kPa, w2 = 0.52 | 908.8 | –
298.15 K, 6000 kPa, w2 = 0.48 | 905.3 | –
298.15 K, 6000 kPa, w2 = 0.49 | 906.4 | –
298.15 K, 6000 kPa, w2 = 0.5 | 907.5 | –
298.15 K, 6000 kPa, w2 = 0.51 | 908.8 | –
298.15 K, 6000 kPa, w2 = 0.52 | 910 | –
298.15 K, 8000 kPa, w2 = 0.48 | 906.6 | –
298.15 K, 8000 kPa, w2 = 0.49 | 907.7 | –
298.15 K, 8000 kPa, w2 = 0.5 | 908.8 | –
298.15 K, 8000 kPa, w2 = 0.51 | 910.1 | –
298.15 K, 8000 kPa, w2 = 0.52 | 911.2 | –
298.15 K, 10000 kPa, w2 = 0.48 | 907.8 | –
298.15 K, 10000 kPa, w2 = 0.49 | 909 | –
298.15 K, 10000 kPa, w2 = 0.5 | 910.1 | 1.43
298.15 K, 10000 kPa, w2 = 0.51 | 911.2 | –
298.15 K, 10000 kPa, w2 = 0.52 | 912.4 | –
298.15 K, 12000 kPa, w2 = 0.48 | 909 | –
298.15 K, 12000 kPa, w2 = 0.49 | 910.2 | –
298.15 K, 12000 kPa, w2 = 0.5 | 911.3 | –
298.15 K, 12000 kPa, w2 = 0.51 | 912.5 | –
298.15 K, 12000 kPa, w2 = 0.52 | 913.6 | –
298.15 K, 14000 kPa, w2 = 0.48 | 910.2 | –
298.15 K, 14000 kPa, w2 = 0.49 | 911.5 | –
298.15 K, 14000 kPa, w2 = 0.5 | 912.5 | –
298.15 K, 14000 kPa, w2 = 0.51 | 913.7 | –
298.15 K, 14000 kPa, w2 = 0.52 | 914.8 | –
298.15 K, 16000 kPa, w2 = 0.48 | 911.4 | –
298.15 K, 16000 kPa, w2 = 0.49 | 912.6 | –
298.15 K, 16000 kPa, w2 = 0.5 | 913.7 | –
298.15 K, 16000 kPa, w2 = 0.51 | 915 | –
298.15 K, 16000 kPa, w2 = 0.52 | 916 | –
298.15 K, 18000 kPa, w2 = 0.48 | 912.6 | –
298.15 K, 18000 kPa, w2 = 0.49 | 913.7 | –
298.15 K, 18000 kPa, w2 = 0.5 | 914.9 | –
298.15 K, 18000 kPa, w2 = 0.51 | 916.1 | –
298.15 K, 18000 kPa, w2 = 0.52 | 917.1 | –
298.15 K, 20000 kPa, w2 = 0.48 | 913.8 | –
298.15 K, 20000 kPa, w2 = 0.49 | 914.9 | –
298.15 K, 20000 kPa, w2 = 0.5 | 916.1 | –
298.15 K, 20000 kPa, w2 = 0.51 | 917.2 | –
298.15 K, 20000 kPa, w2 = 0.52 | 918.2 | –
300.65 K, 100 kPa, w2 = 0.5 | 901.5 | –
300.65 K, 2000 kPa, w2 = 0.5 | 902.9 | –
300.65 K, 4000 kPa, w2 = 0.5 | 904.2 | –
300.65 K, 6000 kPa, w2 = 0.5 | 905.4 | –
300.65 K, 8000 kPa, w2 = 0.5 | 906.8 | –
300.65 K, 10000 kPa, w2 = 0.5 | 908 | –
300.65 K, 12000 kPa, w2 = 0.5 | 909.2 | –
300.65 K, 14000 kPa, w2 = 0.5 | 910.4 | –
300.65 K, 16000 kPa, w2 = 0.5 | 911.6 | –
300.65 K, 18000 kPa, w2 = 0.5 | 912.8 | –
300.65 K, 20000 kPa, w2 = 0.5 | 914 | –
303.15 K, 100 kPa, w2 = 0.5 | 900 | –
303.15 K, 2000 kPa, w2 = 0.5 | 901.3 | –
303.15 K, 4000 kPa, w2 = 0.5 | 902.6 | –
303.15 K, 6000 kPa, w2 = 0.5 | 904 | –
303.15 K, 8000 kPa, w2 = 0.5 | 905.3 | –
303.15 K, 10000 kPa, w2 = 0.5 | 906.5 | –
303.15 K, 12000 kPa, w2 = 0.5 | 907.8 | –
303.15 K, 14000 kPa, w2 = 0.5 | 909 | –
303.15 K, 16000 kPa, w2 = 0.5 | 910.3 | –
303.15 K, 18000 kPa, w2 = 0.5 | 911.4 | –
303.15 K, 20000 kPa, w2 = 0.5 | 912.6 | –
